Experimental data from US12172975B2, “1H-indazole carboxamides as receptor-interacting protein kinase 1 inhibitors (RIPK1)” (BRISTOL-MYERS SQUIBB COMPANY, priority 2018, dated 2024).
Structures can show the parent of a compound that is named as a salt.

Columns and labels:
[1] = tested on: MLKL phosphorylation in HT29-L23 human colorectal adenocarcinoma cells; assay: MLKL Phosphorylation High-Content Assay; assay type: cell-based; settings: Homo sapiens, 6 h, necroptosis induced with TNFα, SMAC mimetic and Z-VAD, read-out: pMLKL (IC50)
In short: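 Following fixation and staining for phospho-S358 MLKL with Hoechst nuclear counterstain, high-content imaging quantified phosphorylation in HT29-L23 cells challenged 6 h with TNFα 35 ng/mL, SMAC mimetic 700 nM and Z-VAD 140 nM. Nec-1s at 6.25 μM defined full inhibition; 4-parameter logistic fits yielded IC50 and Ymax.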

[2] = target: His-GST-TVMV-hRIPK1 (1-324) (Homo sapiens (Human), UniProt Q13546); assay: RIPK1 HTRF Binding Assay; settings: read-out: RIPK1 HTRF (IC50); FRET probe displacement, 1 h at rt
Sequence of His-GST-TVMV-hRIPK1 (1-324) (Q13546 1-324): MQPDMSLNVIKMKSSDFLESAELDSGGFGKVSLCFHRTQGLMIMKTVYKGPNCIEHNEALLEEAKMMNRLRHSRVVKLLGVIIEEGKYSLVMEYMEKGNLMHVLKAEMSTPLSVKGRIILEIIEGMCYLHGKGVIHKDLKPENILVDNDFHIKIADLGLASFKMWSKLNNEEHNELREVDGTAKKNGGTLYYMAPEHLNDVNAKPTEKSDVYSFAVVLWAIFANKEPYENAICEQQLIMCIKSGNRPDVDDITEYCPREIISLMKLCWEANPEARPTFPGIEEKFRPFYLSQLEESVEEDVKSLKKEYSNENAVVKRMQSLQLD

Structure (SMILES)	IC50 [1] [nM]	IC50 [2] [nM]
CNC(=O)c1n[nH]c2cc(-c3cnc(C)c(C(=O)NCc4cc(F)ccc4OC4CCCC4)c3)ccc12 [Example 157, 6-[5-({[2-(cyclopentyloxy)-5-fluoro-phenyl]methyl}carbamoyl)-6-methylpyridin-3-yl]-N-methyl-1H-indazole-3-carboxamide, TFA]	6.8	2.1
CNC(=O)c1n[nH]c2cc(-c3cc(C(=O)NC(C)c4ccccc4OC(F)(F)F)c(OC)nc3C)ccc12 (centres unmarked) [Example 158, 6-[6-methoxy-2-methyl-5-({1-[2-(trifluoromethoxy)-phenyl]ethyl}carbamoyl)-pyridin-3-yl]-N-methyl-1H-indazole-3-carboxamide]	21	35
CNC(=O)c1n[nH]c2cc(-c3cc(C(=O)NCC4CCCC4(C)C)c(OC)nc3C)ccc12 (centres unmarked) [Example 159, 6-(5-{[(2,2-dimethylcyclo-pentyl)methyl]carbamoyl}-6-methoxy-2-methyl-pyridin-3-yl)-N-methyl-1H-indazole-3-carboxamide]	110	34
CNC(=O)c1n[nH]c2cc(-c3cc(C(=O)NCc4cccc(OC(F)(F)F)c4)c(OC)nc3C)ccc12 [Example 160, 6-[6-methoxy-2-methyl-5-({[3-(trifluoromethoxy)-phenyl]methyl}carbamoyl)-pyridin-3-yl]-N-methyl-1H-indazole-3-carboxamide]	120	27
CNC(=O)c1n[nH]c2cc(-c3cc(C(=O)NC(C)c4ccccc4OC(F)(F)F)c(C)nc3C)ccc12 (centres unmarked) [Example 162, 6-[2,6-dimethyl-5-({1-[2-(trifluoromethoxy)phenyl]-ethyl}carbamoyl)pyridin-3-yl]-N-methyl-1H-indazole-3-carboxamide]	74	43
[2H]C([2H])([2H])Oc1ncc(-c2ccc3c(C(=O)NCC4CC4)n[nH]c3c2)cc1C(=O)NCCC(=O)OC(C)(C)C [Example 165, tert-butyl 3-[(5-{3-[(cyclopropyl-methyl)carbamoyl]-1H-indazol-6-yl}-2-(deutero)methoxypyridin-3-yl)formamido]propanoate]	15	140
[2H]C([2H])([2H])Oc1ncc(-c2ccc3c(C(=O)NCC4CC4)n[nH]c3c2)cc1C(=O)NC(C)c1cccc(OC(F)(F)F)c1 (centres unmarked) [Example 166, N-(cyclopropylmethyl)-6-[6-(deutero)methoxy-5-({1-[3-(tri-fluoromethoxy)phenyl]ethyl}-carbamoyl)pyridin-3-yl]-1H-indazole-3-carboxamide]	34	83
[2H]C([2H])([2H])Oc1ncc(-c2ccc3c(C(=O)NCC4CC4)n[nH]c3c2)cc1C(=O)NC(C)c1ccccc1OC(F)(F)F (centres unmarked) [Example 168, N-(cyclopropylmethyl)-6-[6-(deutero)methoxy-5-({1-[2-(tri-fluoromethoxy)phenyl]ethyl}-carbamoyl)pyridin-3-yl]-1H-indazole-3-carboxamide]	17	38
COc1ncc(-c2ccc3c(C(=O)NC4CCN(S(C)(=O)=O)CC4)n[nH]c3c2)cc1C(=O)NCc1ccccc1OC(F)(F)F [Example 169, N-(1-methanesulfonylpiperidin-4-yl)-6-[6-methoxy-5-({[2-(trifluoromethoxy)phenyl]-methyl}carbamoyl)pyridin-3-yl]-1H-indazole-3-carboxamide]	31	22
CCNC(=O)c1n[nH]c2cc(-c3cnc(OC)c(C(=O)NCc4ccccc4OC(F)(F)F)c3)ccc12 [Example 170, N-ethyl-6-[6-methoxy-5-({[2-(trifluoromethoxy)phenyl]-methyl}carbamoyl)pyridin-3-yl]-1H-indazole-3-carboxamide]	23	7.9
COc1ncc(-c2ccc3c(C(=O)NCC4CC4)n[nH]c3c2)cc1C(=O)NCc1ccccc1OC(F)(F)F [Example 172, N-(cyclopropylmethyl)-6-[6-methoxy-5-({[2-(trifluoro-methoxy)phenyl]methyl}-carbamoyl)pyridin-3-yl]-1H-indazole-3-carboxamide]	28	14
CCCCNC(=O)c1n[nH]c2cc(-c3cnc(OC)c(C(=O)NCc4ccccc4OC(F)(F)F)c3)ccc12 [Example 175, N-butyl-6-[6-methoxy-5-({[2-(trifluoromethoxy)phenyl]-methyl}carbamoyl)pyridin-3-yl]-1H-indazole-3-carboxamide]	29	9.9
CCCNC(=O)c1n[nH]c2cc(-c3cnc(OC)c(C(=O)NCc4ccccc4OC(F)(F)F)c3)ccc12 [Example 176, 6-[6-methoxy-5-({[2-(trifluoro-methoxy)phenyl]methyl}carbam-oyl)pyridin-3-yl]-N-propyl-1H-indazole-3-carboxamide]	16	10
COc1ncc(-c2ccc3c(C(=O)NCCCN4CCCC4=O)n[nH]c3c2)cc1C(=O)NCc1ccccc1OC(F)(F)F [Example 177, 6-[6-methoxy-5-({[2-(trifluoro-methoxy)phenyl]methyl}-carbamoyl)pyridin-3-yl]-N-[3-(2-oxopyrrolidin-1-yl)propyl]-1H-indazole-3-carboxamide]	15	2.9
COc1ncc(-c2ccc3c(C(=O)NC4CCN(C(C)=O)CC4)n[nH]c3c2)cc1C(=O)NCc1ccccc1OC(F)(F)F [Example 180, N-(1-acetylpiperidin-4-yl)-6-[6-methoxy-5-({[2-(trifluoro-methoxy)phenyl]methyl}carbam-oyl)pyridin-3-yl]-1H-indazole-3-carboxamide]	39	19
COc1ncc(-c2ccc3c(C(=O)NC4CC(=O)N(C(C)C)C4)n[nH]c3c2)cc1C(=O)NCc1ccccc1OC(F)(F)F (centres unmarked) [Example 181, 6-[6-methoxy-5-({[2-(trifluoro-methoxy)phenyl]methyl}carbam-oyl)pyridin-3-yl]-N-[5-oxo-1-(propan-2-yl)pyrrolidin-3-yl]-1H-indazole-3-carboxamide, TFA]	82	27
COc1ncc(-c2ccc3c(C(=O)NCCO)n[nH]c3c2)cc1C(=O)NCc1ccccc1OC(F)(F)F [Example 182, N-(2-hydroxyethyl)-6-[6-meth-oxy-5-({[2-(trifluoromethoxy)-phenyl]methyl}carbamoyl)-pyridin-3-yl]-1H-indazole-3-carboxamide]	83	12
[2H]C([2H])([2H])C([2H])([2H])NC(=O)c1n[nH]c2cc(-c3cnc(OC)c(C(=O)NCc4ccccc4OC(F)(F)F)c3)ccc12 [Example 183, N-[(1,1,2,2,2-deutero)ethyl]-6-[6-methoxy-5-({[2-(trifluoro-methoxy)phenyl]methyl}carbam-oyl)pyridin-3-yl]-1H-indazole-3-carboxamide]	15	5.9
CCN(CC)C1CCC(NC(=O)c2n[nH]c3cc(-c4cnc(OC)c(C(=O)NCc5ccccc5OC(F)(F)F)c4)ccc23)CC1 (centres unmarked) [Example 184, N-[4-(diethylamino)cyclohexyl]-6-[6-methoxy-5-({[2-(trifluoro-methoxy)phenyl]methyl}carbam-oyl)pyridin-3-yl]-1H-indazole-3-carboxamide, TFA]	88	7
COc1ncc(-c2ccc3c(C(=O)NC4CCC(N(C)C)CC4)n[nH]c3c2)cc1C(=O)NCc1ccccc1OC(F)(F)F (centres unmarked) [Example 185, N-[4-(dimethylamino)cyclo-hexyl]-6-[6-methoxy-5-({[2-(trifluoromethoxy)phenyl]-methyl}carbamoyl)pyridin-3-yl]-1H-indazole-3-carboxamide]	110	13
COc1ccccc1N1CC(NC(=O)c2n[nH]c3cc(-c4cnc(OC)c(C(=O)NCc5ccccc5OC(F)(F)F)c4)ccc23)CC1=O (centres unmarked) [Example 186, 6-[6-methoxy-5-({[2-(trifluoro-methoxy)phenyl]methyl}-carbamoyl)pyridin-3-yl]-N-[1-(2-methoxyphenyl)-5-oxo-pyrrolidin-3-yl]-1H-indazole-3-carboxamide]	13	95
COc1ncc(-c2ccc3c(C(=O)NC4CC(=O)N(C)C4)n[nH]c3c2)cc1C(=O)NCc1ccccc1OC(F)(F)F (centres unmarked) [Example 187, 6-[6-methoxy-5-({[2-(trifluoro-methoxy)phenyl]methyl}-carbamoyl)pyridin-3-yl]-N-(1-methyl-5-oxopyrrolidin-3-yl)-1H-indazole-3-carboxamide, TFA]	78	28
COc1ncc(-c2ccc3c(C(=O)NC4CCC(O)CC4)n[nH]c3c2)cc1C(=O)NCc1ccccc1OC(F)(F)F (centres unmarked) [Example 189, 6-[6-methoxy-5-({[2-(trifluoro-methoxy)phenyl]methyl}-carbamoyl)pyridin-3-yl]-N-[(1r,4r)-4-hydroxycyclohexyl]-1H-indazole-3-carboxamide]	30	9.6
[2H]C([2H])([2H])Oc1ncc(-c2ccc3c(C(=O)NC4CC4)n[nH]c3c2)cc1C(=O)N[C@@H]1CN(C(=O)C2CC(F)(F)C2)C[C@@H]1F [Example 190, N-cyclopropyl-6-(5-{[(3R,4S)-1-(3,3-difluorocyclobutanecarbonyl)-4-fluoropyrrolidin-3-yl]carbamoyl}-6-(deutero)methoxypyridin-3-yl)-1H-indazole-3-carboxamide]	290	100
[2H]C([2H])([2H])Oc1ncc(-c2ccc3c(C(=O)NC4CC(F)(F)C4)n[nH]c3c2)cc1C(=O)N[C@@H]1CN(C(=O)C2CC(F)(F)C2)C[C@@H]1F [Example 191, 6-(5-{[(3R,4S)-1-(3,3-difluorocyclo-butanecarbonyl)-4-fluoropyrrolidin-3-yl]carbamoyl}-6-(deutero)methoxy-pyridin-3-yl)-N-(3,3-difluorocyclo-butyl)-1H-indazole-3-carboxamide]	89	120
